The source of these data is patent US20090017105A1, “PROLIPOSOMAL AND LIPOSOMAL COMPOSITIONS OF POORLY WATER SOLUBLE DRUGS” (priority 2007, published 2009).

By IC50 is commonly meant the concentration that gives 50% inhibition.

Where a name gives a salt, the structure may show the parent alone. Read-outs that look alike come from different tables or passages of the source. Some results are limits rather than exact numbers.

For data set [1] the following is noted: Ogawa et al., U.S. Pat. No. 5,094,854, cited from earlier work.
The conditions of data set [2]: cited from earlier work; for entrapment in the liposomes: Mayhew et al., U.S. Pat. No. 5,939,567 and 6,118,011.
Another data set relates to DU145. Kind of data set: In vitro cytotoxicity, 72 hour MIT assay. The settings on record: Homo sapiens, DU-145; Prostrate, DU145, 72 hour. The format is cell-based. An excerpt:
(§1) The cytotoxicity of the Liposomal composition of Docetaxel (hereinafter referred to as “LD”) in vitro in a panel of human cancer cell lines, expected to be sensitive to Docetaxel and the effects were compared with the conventional, approved, marketed composition of Docetaxel, viz. Taxotere® (hereinafter referred to as “CD”). A solution of bulk Docetaxel in DMSO was taken as a positive control for the studies.

A further data set concerns MDA MB 453. The data set can be described thus: In vitro cytotoxicity, 72 hour MIT assay. The format is cell-based. Particulars: Homo sapiens; Breast, MDA MB 453, 72 hour.
From the text: as §1

The subject of a further data set is PAI. Kind of data set: In vitro cytotoxicity, 72 hour MIT assay. In kind it is cell-based. The settings on record: Homo sapiens, Ovary.
From the text: as §1

The next data set has as its system SKOV3. The data set can be described thus: In vitro cytotoxicity, 72 hour MIT assay. In kind it is cell-based. The settings on record: Homo sapiens, SK-OV-3; Ovary, SKOV3, 72 hour.
From the text: as §1

The conditions of data set [3]: cited from earlier work.
The conditions of data set [4]: Durr et al., U.S. Pat. No. 5,670,536; cited from earlier work.
The mark [5] stands for this setting: liposome system of Hager et al.

With `N.N.[Cl][Pt][Cl]` [Cisplatin], the entries for the “rate of release of the drug” value in data set [1] (39° C.) and in data set [1] (42° C.) were “hardly anything” and 30 to 95%, respectively.
For `CCCCCC(=O)OC1CC2OCC2(OC(C)=O)C2C(OC(=O)c3ccccc3)C3(O)CC(OC(=O)C(O)C(NC(=O)c4ccccc4)c4ccccc4)C(C)=C(C(OC(C)=O)C(=O)C12C)C3(C)C` (stereo not shown) [7-caproyl Paclitaxel], the “entrapment in the liposomes” value in data set [2] was “about 90%”.
For `CCCCCC(=O)OC(C(=O)OC1CC2(O)C(OC(=O)c3ccccc3)C3C4(OC(C)=O)COC4CC(O)C3(C)C(=O)C(OC(C)=O)C(=C1C)C2(C)C)C(NC(=O)c1ccccc1)c1ccccc1` (stereo not shown) [2′-caproyl Paclitaxel], the “entrapment in the liposomes” value in data set [2] was “about 70%”.
Turning to `COc1cccc2c1C(=O)c1c(O)c3c(c(O)c1C2=O)C[C@@](O)(C(=O)CO)C[C@@H]3O[C@H]1C[C@H](N)[C@H](O)[C@H](C)O1` [Doxorubicin hydrochloride], in data set [2] (liposome system of Hager et al., U.S. Pat. No. 5,556,637 and 5,741,517), the encapsulation is 78%.
For Quinoline yellow, in data set [2] (setting [5]), the liposome-bound active principle is 1.38 mg/mL and the non-liposomal-bound active principle entry is listed as “about 3.2 mg/ml”.
With `CC(=O)O[C@@]12CO[C@@H]1C[C@H](O)[C@@]1(C)C(=O)[C@H](O)C3=C(C)[C@@H](OC(=O)[C@H](O)[C@@H](NC(=O)OC(C)(C)C)c4ccccc4)C[C@@](O)([C@@H](OC(=O)c4ccccc4)[C@H]21)C3(C)C` [Docetaxel Solution in DMSO, Docetaxel], the IC50 in the data set on DU145 was 5.13 ± 1.28 nM; with MDA MB 453, 15.1 ± 2.3 nM; in the data set on PAI it was < 0.01 nM; in the data set with SKOV3, 9.87 ± 2.74 nM. The “period for which liposomal compositions remain clear” value in data set [3] (Durr et al., U.S. Pat. No. 5,670,536, 20° C.) was “more than eight weeks”. In addition, the particle diameter in data set [4] is on record as 47 to 71 nm.
As for `COc1cccc2c1C(=O)c1c(O)c3c(c(O)c1C2=O)C[C@@](O)(C(=O)CO)C[C@@H]3O[C@H]1C[C@H](N)[C@H](O)[C@H](C)O1` [Doxorubicin], the “drug entrapment in the liposomes” value in data set [2] (liposomes of Barenholz et al., U.S. Pat. No. 4,797,285 and 4,898,735) is 85-90%. The “entrapment of the drug” value in data set [2] (thermosensitive liposomes of Needham et al., U.S. Pat. No. 6,200,598 and 6,726,925 B1) is listed as “not more than 80%”. Further, in data set [3] (lyophilized liposomal composition of Huang et al., WO 92/02208, in two weeks), the drop in potency is reported as 10-15%.
